Like-named read-outs stand apart in the source and are kept apart here.
Assays:
[1] = target: T1, Human α4β2 nAChR subtype (Homo sapiens, UniProt P17787+P43681); assay: [3H]nicotine radioligand binding, membranes from SH-EP1/human α4β2 clonal cells
T1 construct: expressed in transfected cells; host or cells: SH-EP1 clonal cells
Procedure: Preparation of membranes from SH-EP1/human α4β2 clonal cells:
Cell pellets from 40 150 mm culture dishes were pooled, and homogenized by Polytron (Kinematica GmbH, Switzerland) in 20 milliliters of ice-cold preparative buffer. The homogenate was centrifuged at 48,000 g for 20 minutes at 4° C. The resulting pellet was re-suspended in 20 mL of ice-cold preparative buffer and stored at ˜20° C.
(§1) On the day of the assay, the frozen membranes were thawed and spun at 48,000×g for 20 min. The supernatant was decanted and discarded. The pellet was resuspended in Dulbecco's phosphate buffered saline (PBS, Life Technologies) pH 7.4 and homogenized with the Polytron for 6 seconds. Protein concentrations were determined using a Pierce BCA Protein Assay Kit, with bovine serum albumin as the standard (Pierce Chemical Company, Rockford, Ill.).
(§2) Assay: Membrane preparations (approximately 50 μg for human and 200-300 μg protein for rat α4β2) were incubated in PBS (50 μL and 100 μL respectively) in the presence of competitor compound (0.01 nM to 100 μM) and 5 nM [^3H]nicotine for 2-3 hours on ice. Incubation was terminated by rapid filtration on a multi-manifold tissue harvester (Brandel, Gaithersburg, Md.) using GF/B filters presoaked in 0.33% polyethyleneimine (w/v) to reduce non-specific binding. Tissue was rinsed 3 times in PBS, pH 7.4. Scintillation fluid was added to filters containing the washed tissue and allowed to equilibrate. Filters were then counted to determine radioactivity bound to the membranes by liquid scintillation counting (2200CA Tri-Carb LSC, Packard Instruments, 50% efficiency or Wallac Trilux 1450 MicroBeta, 40% efficiency, Perkin Elmer).
(§3) Data were expressed as disintegrations per minute (DPMs). Within each assay, each point had 2-3 replicates. The replicates for each point were averaged and plotted against the log of the drug concentration. IC50, which is the concentration of the compound that produces 50% inhibition of binding, was determined by least squares non-linear regression. Ki values were calculated using the Cheng-Prussof equation (1973): […]
(§4) where N is the concentration of [^3H]nicotine and Kd is the affinity of nicotine (3 nM, determined in a separate experiment).

[2] = target: T2, Rat α4β2 nAChR subtype (Rattus norvegicus, UniProt P09483+P12390); assay: [3H]nicotine radioligand binding, membranes from rat cortex
T2 construct: from tissue; host or cells: rat cerebral cortex membranes (female Sprague-Dawley)
T2 sequence (P09483 31-630): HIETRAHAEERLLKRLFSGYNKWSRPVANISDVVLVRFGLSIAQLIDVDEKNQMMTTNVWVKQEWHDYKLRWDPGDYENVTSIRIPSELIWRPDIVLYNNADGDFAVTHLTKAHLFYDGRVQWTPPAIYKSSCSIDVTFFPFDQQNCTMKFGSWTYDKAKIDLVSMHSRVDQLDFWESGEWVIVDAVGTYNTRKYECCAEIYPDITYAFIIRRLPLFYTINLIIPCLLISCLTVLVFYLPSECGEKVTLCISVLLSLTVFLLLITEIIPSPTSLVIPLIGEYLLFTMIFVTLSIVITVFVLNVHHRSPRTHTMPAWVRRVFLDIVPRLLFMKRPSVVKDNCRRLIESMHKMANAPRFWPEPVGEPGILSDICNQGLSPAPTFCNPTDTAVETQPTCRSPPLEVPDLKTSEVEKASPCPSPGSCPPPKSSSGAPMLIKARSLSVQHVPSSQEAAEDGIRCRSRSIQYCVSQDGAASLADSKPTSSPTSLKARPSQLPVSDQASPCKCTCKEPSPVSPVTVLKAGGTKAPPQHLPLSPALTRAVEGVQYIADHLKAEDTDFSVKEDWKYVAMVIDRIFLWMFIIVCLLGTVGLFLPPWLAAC
T2 sequence (P12390 25-500): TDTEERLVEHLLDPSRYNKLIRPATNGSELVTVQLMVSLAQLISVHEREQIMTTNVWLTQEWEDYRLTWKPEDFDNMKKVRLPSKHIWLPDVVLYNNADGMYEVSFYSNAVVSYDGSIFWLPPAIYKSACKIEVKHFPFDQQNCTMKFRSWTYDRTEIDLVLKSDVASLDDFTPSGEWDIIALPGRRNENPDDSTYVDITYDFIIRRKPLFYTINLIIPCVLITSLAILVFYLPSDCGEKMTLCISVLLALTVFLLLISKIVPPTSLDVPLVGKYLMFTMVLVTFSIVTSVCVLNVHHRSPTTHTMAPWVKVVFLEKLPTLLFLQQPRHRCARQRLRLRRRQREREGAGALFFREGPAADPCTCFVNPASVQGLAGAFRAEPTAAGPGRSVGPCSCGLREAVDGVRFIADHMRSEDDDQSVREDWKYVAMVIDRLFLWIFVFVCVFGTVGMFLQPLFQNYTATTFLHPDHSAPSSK
Procedure: Preparation of membranes from rat cortex: Rats (female, Sprague-Dawley), weighing 150-250 g, were maintained on a 12 h light/dark cycle and were allowed free access to water and food supplied by PMI Nutrition International, Inc. Animals were anesthetized with 70% CO2, and then decapitated. Brains were removed and placed on an ice-cold platform. The cerebral cortex was removed and placed in 20 volumes (weight:volume) of ice-cold preparative buffer (137 mM NaCl, 10.7 mM KCl, 5.8 mM KH2PO4, 8 mM Na2HPO4, 20 mM HEPES (free acid), 5 mM iodoacetamide, 1.6 mM EDTA, pH 7.4); PMSF, dissolved in methanol to a final concentration of 100 μM, was added and the suspension was homogenized by Polytron. The homogenate was centrifuged at 18,000×g for 20 min at 4° C. and the resulting pellet was re-suspended in 20 volumes of ice-cold water. After 60 min incubation on ice, a new pellet was collected by centrifugation at 18,000×g for 20 min at 4° C. The final pellet was re-suspended in 10 volumes of buffer and stored at ˜20° C.
as §1, §2, §3, §4

[3] = [3H]nicotine, "Failed HTS" = failed to bind sufficiently in high through-put screening to warrant Ki determination, read-out: Human α4β2 Ki
[4] = [3H]nicotine, "Failed HTS" = failed to bind sufficiently in high through-put screening to warrant Ki determination
[5] = [3H]nicotine, "Failed HTS" = failed to bind sufficiently in high through-put screening to warrant Ki determination, read-out: Rat α4β2 Ki

T1 sequence (P43681 29-627 limits assumed): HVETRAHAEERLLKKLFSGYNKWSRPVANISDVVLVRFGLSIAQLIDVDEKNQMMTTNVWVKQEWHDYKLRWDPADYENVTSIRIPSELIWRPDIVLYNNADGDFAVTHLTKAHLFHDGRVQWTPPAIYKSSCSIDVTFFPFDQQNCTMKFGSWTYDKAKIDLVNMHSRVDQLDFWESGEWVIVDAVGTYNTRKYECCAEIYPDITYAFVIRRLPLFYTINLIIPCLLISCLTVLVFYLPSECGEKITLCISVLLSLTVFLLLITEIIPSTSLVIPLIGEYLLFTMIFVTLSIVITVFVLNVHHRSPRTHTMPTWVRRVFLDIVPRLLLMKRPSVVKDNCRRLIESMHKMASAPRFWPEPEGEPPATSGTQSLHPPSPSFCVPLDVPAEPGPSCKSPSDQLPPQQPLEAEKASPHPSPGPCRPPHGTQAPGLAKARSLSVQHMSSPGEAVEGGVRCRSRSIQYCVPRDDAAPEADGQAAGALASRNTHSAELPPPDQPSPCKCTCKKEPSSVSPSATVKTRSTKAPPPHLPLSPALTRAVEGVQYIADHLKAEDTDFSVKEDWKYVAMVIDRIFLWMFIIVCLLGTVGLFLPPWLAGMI
T1 sequence (P17787 26-502): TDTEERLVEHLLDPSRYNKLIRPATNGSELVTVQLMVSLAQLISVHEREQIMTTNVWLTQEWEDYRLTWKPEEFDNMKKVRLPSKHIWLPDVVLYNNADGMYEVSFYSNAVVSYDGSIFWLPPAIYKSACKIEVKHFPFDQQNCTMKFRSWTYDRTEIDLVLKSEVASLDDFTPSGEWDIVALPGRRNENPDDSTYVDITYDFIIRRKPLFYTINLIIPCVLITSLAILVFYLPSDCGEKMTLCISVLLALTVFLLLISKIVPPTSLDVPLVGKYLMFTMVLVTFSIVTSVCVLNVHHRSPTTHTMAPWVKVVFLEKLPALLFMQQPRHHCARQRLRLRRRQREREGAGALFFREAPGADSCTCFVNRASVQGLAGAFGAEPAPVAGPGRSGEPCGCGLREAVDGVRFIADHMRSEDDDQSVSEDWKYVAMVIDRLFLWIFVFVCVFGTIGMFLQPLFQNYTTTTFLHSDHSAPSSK

Structure (SMILES) | Ki [1, 3] | Rat α4β2 Ki (nM) [2, 4] | further results
Cc1nc2cc3c(cc2nc1C)CCNCC3 [B] |  |  | Ki [1]: 0.098 µM; Ki [2]: 0.59 µM
CCc1nc2cc3c(cc2nc1C)CCNCC3 [C] | 0.31 µM | Failed HTS | 
CCc1nc2cc3c(cc2nc1CC)CCNCC3 [D] | 0.46 µM | Failed HTS | 
Cc1cnc2cc3c(cc2n1)CCNCC3 [E] | 0.037 µM |  | Ki [2, 5]: 0.063 µM
c1cnc2cc3c(cc2c1)CCNCC3 [F] | 0.00093 µM |  | Ki [2, 5]: 0.003 µM
O=c1cnc2cc3c(cc2[nH]1)CCNCC3 [G] | 0.063 µM |  | Ki [2, 5]: 0.12 µM
COc1cnc2cc3c(cc2n1)CCNCC3 [H] | 0.025 µM |  | Ki [2, 5]: 0.077 µM
c1cncc(-c2cnc3cc4c(cc3n2)CCNCC4)c1 [I] |  | Failed HTS | Ki [1]: 7.4 µM
Clc1cnc2cc3c(cc2n1)CCNCC3 [J] |  |  | Ki [1]: 0.045 µM; Ki [2]: 0.012 µM
CNc1cnc2cc3c(cc2n1)CCNCC3 [K] |  | Failed HTS | Human α4β2 Ki (nM) [1, 4]: Failed HTS
CN(C)c1cnc2cc3c(cc2n1)CCNCC3 [L] | 0.74 µM | Failed HTS | 
c1ccc(CNc2cnc3cc4c(cc3n2)CCNCC4)cc1 [M] | 0.53 µM | Failed HTS | 
O=c1ccc2cc3c(cc2[nH]1)CCNCC3 [N] |  | Failed HTS | Human α4β2 Ki (nM) [1, 4]: Failed HTS
Clc1ccc2cc3c(cc2n1)CCNCC3 [O] |  |  | Ki [1]: 0.00048 µM; Ki [2]: 0.0031 µM
COc1ccc2cc3c(cc2n1)CCNCC3 [P] | 1.2 µM | Failed HTS | 
Cc1ccc2cc3c(cc2n1)CCNCC3 [Q] | 0.011 µM |  | Ki [2, 5]: 0.045 µM
CN1CCc2cc3nccnc3cc2CC1 [R] |  | Failed HTS | Ki [1]: 0.21 µM

From patent publication US20120053168A1, “FUSED BENZOAZEPINES AS NEURONAL NICOTINIC ACETYLCHOLINE RECEPTOR LIGANDS” (Targacept, Inc., priority 2009, published 2012)
